Measured values from US9040533B2, “Oxime-substituted-quinoxaline-type piperidine compounds as ORL-1 modulators” (priority 2012, dated 2015).
pIC50: −log10 of the molar value.

Experiments:
Assay in all cases: biochemical
[1] = biological target: CYP3A4 (Homo sapiens, UniProt P08684)
[2] = biological target: CYP2C19 (Homo sapiens, UniProt P33261)
[3] = biological target: CYP2C9 (Homo sapiens, UniProt P11712)
[4] = biological target: CYP2D6 (Homo sapiens, UniProt P10635)
[5] = biological target: T1, CYP1A2 (Homo sapiens, UniProt P05177)
T1 sequence (P05177 1-516): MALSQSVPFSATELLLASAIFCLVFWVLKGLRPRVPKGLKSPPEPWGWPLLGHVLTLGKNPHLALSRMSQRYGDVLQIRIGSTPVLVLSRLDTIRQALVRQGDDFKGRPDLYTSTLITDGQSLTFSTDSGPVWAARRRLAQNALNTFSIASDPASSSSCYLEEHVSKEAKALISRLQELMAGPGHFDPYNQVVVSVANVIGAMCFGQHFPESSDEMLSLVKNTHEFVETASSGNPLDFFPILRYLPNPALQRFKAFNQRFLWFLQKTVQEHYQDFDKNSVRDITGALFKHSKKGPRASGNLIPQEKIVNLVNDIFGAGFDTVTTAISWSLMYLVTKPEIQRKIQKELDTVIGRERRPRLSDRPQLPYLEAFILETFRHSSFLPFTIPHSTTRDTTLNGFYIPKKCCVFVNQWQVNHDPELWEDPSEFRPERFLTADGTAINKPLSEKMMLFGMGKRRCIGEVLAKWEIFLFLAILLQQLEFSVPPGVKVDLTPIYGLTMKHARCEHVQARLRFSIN

Measured: pIC50

Sequence of CYP2D6 (P10635 whole entry): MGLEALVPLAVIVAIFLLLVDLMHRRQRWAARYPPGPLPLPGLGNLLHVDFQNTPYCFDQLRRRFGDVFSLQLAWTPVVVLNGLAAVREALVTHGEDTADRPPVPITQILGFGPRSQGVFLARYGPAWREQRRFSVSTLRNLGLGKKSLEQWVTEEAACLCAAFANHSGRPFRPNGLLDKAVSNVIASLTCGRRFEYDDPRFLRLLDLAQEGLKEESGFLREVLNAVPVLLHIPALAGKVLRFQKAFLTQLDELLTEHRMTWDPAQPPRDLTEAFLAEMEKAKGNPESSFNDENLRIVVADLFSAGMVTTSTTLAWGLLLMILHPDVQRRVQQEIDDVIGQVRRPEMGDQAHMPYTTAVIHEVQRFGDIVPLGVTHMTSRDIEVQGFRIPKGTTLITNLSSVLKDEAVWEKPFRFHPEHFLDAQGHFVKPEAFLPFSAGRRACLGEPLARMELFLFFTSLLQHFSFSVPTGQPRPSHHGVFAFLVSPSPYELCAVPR
Sequence of CYP2C19 (P33261 whole entry): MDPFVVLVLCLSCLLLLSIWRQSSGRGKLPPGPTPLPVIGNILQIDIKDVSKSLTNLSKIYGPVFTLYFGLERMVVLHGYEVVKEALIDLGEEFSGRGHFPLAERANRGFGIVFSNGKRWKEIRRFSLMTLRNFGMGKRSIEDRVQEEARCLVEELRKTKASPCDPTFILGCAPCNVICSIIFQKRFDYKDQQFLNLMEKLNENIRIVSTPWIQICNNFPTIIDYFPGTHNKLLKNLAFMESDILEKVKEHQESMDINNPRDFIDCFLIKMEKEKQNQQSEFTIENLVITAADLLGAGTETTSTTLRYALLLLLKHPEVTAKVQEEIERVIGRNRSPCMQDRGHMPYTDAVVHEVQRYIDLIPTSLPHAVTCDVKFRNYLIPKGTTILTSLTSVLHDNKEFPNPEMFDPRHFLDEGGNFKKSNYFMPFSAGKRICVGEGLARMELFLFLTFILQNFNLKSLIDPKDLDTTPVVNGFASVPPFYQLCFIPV
Sequence of CYP2C9 (P11712 whole entry): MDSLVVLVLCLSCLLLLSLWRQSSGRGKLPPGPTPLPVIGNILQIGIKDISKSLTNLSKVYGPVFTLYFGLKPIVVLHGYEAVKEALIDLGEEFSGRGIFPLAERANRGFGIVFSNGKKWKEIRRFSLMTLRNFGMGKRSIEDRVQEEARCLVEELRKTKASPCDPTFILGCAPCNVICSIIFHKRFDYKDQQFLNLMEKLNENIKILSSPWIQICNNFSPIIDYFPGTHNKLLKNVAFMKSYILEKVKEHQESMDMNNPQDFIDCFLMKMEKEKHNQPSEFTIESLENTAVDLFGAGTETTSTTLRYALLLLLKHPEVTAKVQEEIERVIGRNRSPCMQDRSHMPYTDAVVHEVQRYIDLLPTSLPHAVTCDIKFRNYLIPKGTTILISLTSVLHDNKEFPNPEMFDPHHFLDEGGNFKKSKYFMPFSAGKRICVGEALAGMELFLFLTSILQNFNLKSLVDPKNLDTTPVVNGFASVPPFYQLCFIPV
Sequence of CYP3A4 (P08684 whole entry): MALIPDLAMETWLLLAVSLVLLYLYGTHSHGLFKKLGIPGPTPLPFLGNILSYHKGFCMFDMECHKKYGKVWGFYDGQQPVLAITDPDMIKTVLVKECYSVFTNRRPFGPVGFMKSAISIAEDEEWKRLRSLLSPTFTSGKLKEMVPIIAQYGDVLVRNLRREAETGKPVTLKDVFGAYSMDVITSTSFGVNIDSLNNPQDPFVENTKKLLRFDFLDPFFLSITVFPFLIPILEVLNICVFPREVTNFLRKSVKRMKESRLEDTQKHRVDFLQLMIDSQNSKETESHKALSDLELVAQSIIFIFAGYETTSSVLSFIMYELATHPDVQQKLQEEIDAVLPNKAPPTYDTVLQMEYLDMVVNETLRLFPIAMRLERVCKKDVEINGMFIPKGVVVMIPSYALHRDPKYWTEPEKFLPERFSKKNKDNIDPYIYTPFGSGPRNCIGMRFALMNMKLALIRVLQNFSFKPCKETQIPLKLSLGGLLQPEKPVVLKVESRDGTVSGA

CON=C(C(=O)O)c1nc2ccccc2n([C@H]2C[C@H]3COC[C@@H](C2)N3C2CC3CCCCC(C3)C2)c1=O (stereo partly drawn) [Compound 50, [4-((1R,5S,7S)-(1S,6R,8R)-9-bicyclo[4.3.1]dec-8-yl-3-oxa-9-aza-bicyclo[3.3.1]non-7-yl)-3-oxo-3,4-dihydro-quinoxalin-2-yl]-methoxyimino-acetic acid]
< 4.70: all assays above

NC(=O)CO/N=C(\C(=O)O)c1nc2ccccc2n([C@H]2C[C@H]3CCC[C@@H](C2)N3C2CC3CCCC(C3)C2)c1=O (stereo partly drawn) [Compound 38, (Z)-2-(2-amino-2-oxoethoxyimino)-2-(4-((1R,3R)-9-(bicyclo[3.3.1]nonan-3-yl)-9-azabicyclo[3.3.1]nonan-3-yl)-3-oxo-3,4-dihydroquinoxalin-2-yl)acetic acid]
< 4.70: all assays above

CC(O/N=C(\C(=O)O)c1nc2ccccc2n([C@H]2C[C@H]3CCC[C@@H](C2)N3C2CC3CCCC(C3)C2)c1=O)C(N)=O (stereo partly drawn) [Compound 52]
< 4.70: all assays above

CC(C)ON=C(C(=O)O)c1nc2ccccc2n([C@H]2C[C@H]3CCC[C@@H](C2)N3C2CC3CCCC(C3)C2)c1=O (stereo partly drawn) [Compound 31]
< 4.70: all assays above

O=C(O)/C(=N\OCCO)c1nc2ccccc2n([C@H]2C[C@H]3CCC[C@@H](C2)N3C2CC3CCCC(C3)C2)c1=O (stereo partly drawn) [Compound 4]
< 4.70: all assays above

CC(C)(O/N=C(\C(=O)O)c1nc2ccccc2n([C@H]2C[C@H]3CC[C@@H](C2)N3C2CC3CCCCC(C3)C2)c1=O)C(N)=O (stereo partly drawn) [Compound 61]
< 4.70: all assays above

CON=C(CCC(=O)O)c1nc2ccccc2n([C@H]2C[C@H]3CCC[C@@H](C2)N3C2CC3CCCC(C3)C2)c1=O (stereo partly drawn) [Compound 2, 4-[4-((1R,3R)—(S)-9-bicyclo[3.3.1]non-3-yl-9-aza-bicyclo[3.3.1]non-3-yl)-3-oxo-3,4-dihydro-quinoxalin-2-yl]-4-methoxyimino-butyric acid]
< 4.70: all assays above

CN(C)C(=O)C(=NOCC(=O)O)c1nc2ccccc2n([C@H]2C[C@H]3CCC[C@@H](C2)N3C2CC3CCCC(C3)C2)c1=O (stereo partly drawn) [Compound 51]
< 4.70: all assays above

COCCO/N=C(\CCC(=O)O)c1nc2ccccc2n([C@H]2C[C@H]3CCC[C@@H](C2)N3C2CC3CCCCC(C3)C2)c1=O (stereo partly drawn) [Compound 56]
< 4.70: all assays above

CC(=NOCC(=O)O)c1nc2ccccc2n(C2CC3CCC(C2)N3C2CC3CCCCC(C3)C2)c1=O (stereo not drawn) [Compound 22]
< 4.70: all assays above

CC(C)(ON=C(C(N)=O)c1nc2ccccc2n([C@H]2C[C@H]3CCC[C@@H](C2)N3C2CC3CCCC(C3)C2)c1=O)C(=O)O (stereo partly drawn) [Compound 57]
< 4.70: all assays above

CNC(=O)CCC(=NOCC(=O)O)c1nc2ccccc2n([C@H]2C[C@H]3CCC[C@@H](C2)N3C2CC3CCCCC(C3)C2)c1=O (stereo partly drawn) [Compound 58]
< 4.70: all assays above

CCON=C(C(=O)O)c1nc2ccccc2n([C@H]2C[C@H]3CCC[C@@H](C2)N3C2CC3CCCC(C3)C2)c1=O (stereo partly drawn) [Compound 30]
< 4.70: all assays above

CC(C)ON=C(C(=O)O)c1nc2ccccc2n([C@H]2C[C@H]3CC[C@@H](C2)N3C2CC3CCCCC(C3)C2)c1=O (stereo partly drawn) [Compound 37, [4-((1S,3R,5R)-(1R,6S,8S)-8-bicyclo[4.3.1]dec-8-yl-8-aza-bicyclo[3.2.1]oct-3-yl)-3-oxo-3,4-dihydro-quinoxalin-2-yl]-isopropoxyimino-acetic acid]
< 4.70: all assays above

O=C(O)C(=NOCCO)c1nc2ccccc2n([C@H]2C[C@H]3CC[C@@H](C2)N3C2CC3CCCCC(C3)C2)c1=O (stereo partly drawn) [Compound 19]
< 4.70: all assays above

O=C(O)C(=NOCCO)c1nc2ccccc2n([C@H]2C[C@H]3CCC[C@@H](C2)N3C2CC3CCCCC(C3)C2)c1=O (stereo partly drawn) [Compound 15]
< 4.70: all assays above

O=C(O)CCC(=NO)c1nc2ccccc2n([C@H]2C[C@H]3CCC[C@@H](C2)N3C2CCCCCCCCC2)c1=O [Compound 18]
< 4.70: all assays above

CON=C(CCC(=O)O)c1nc2ccccc2n([C@H]2C[C@H]3CC[C@@H](C2)N3C2CC3CCCCC(C3)C2)c1=O (stereo partly drawn) [Compound 12, 4-(4-((1R,3R)-8-(bicyclo[4.3.1]decan-8-yl)-8-azabicyclo[3.2.1]octan-3-yl)-3-oxo-3,4-dihydroquinoxalin-2-yl)-4-(methoxyimino)butanoic acid]
< 4.70: all assays above

CON=C(C(=O)O)c1nc2ccccc2n([C@H]2C[C@H]3CCC[C@@H](C2)N3C2CC3CCCCC(C3)C2)c1=O (stereo partly drawn) [Compound 17]
< 4.70: all assays above

C/C(=N\OCC(=O)O)c1nc2ccccc2n([C@H]2C[C@H]3CCC[C@@H](C2)N3C2CC3CCCCC(C3)C2)c1=O (stereo partly drawn) [Compound 24, 2-((E)-1-(4-((1R,3R)-9-(bicyclo[4.3.1]decan-8-yl)-9-azabicyclo[3.3.1]nonan-3-yl)-3-oxo-3,4-dihydroquinoxalin-2-yl)ethylideneaminooxy)acetic acid]
< 4.70: all assays above

NC(=O)CO/N=C(\C(=O)O)c1nc2ccccc2n([C@H]2C[C@H]3CC[C@@H](C2)N3C2CC3CCCCC(C3)C2)c1=O (stereo partly drawn) [Compound 60]
< 4.70: all assays above

CC(C)ON=C(CCC(=O)O)c1nc2ccccc2n([C@H]2C[C@H]3CC[C@@H](C2)N3C2CC3CCCCC(C3)C2)c1=O (stereo partly drawn) [Compound 67]
< 4.70: all assays above

CCN(CC)C(=O)CO/N=C(\C(=O)O)c1nc2ccccc2n([C@H]2C[C@H]3CCC[C@@H](C2)N3C2CC3CCCC(C3)C2)c1=O (stereo partly drawn) [Compound 5, [4-((1R,3R,7S)-9-bicyclo[3.3.1]non-3-yl-9-aza-bicyclo[3.3.1]non-3-yl)-3-oxo-3,4-dihydro-quinoxalin-2-yl]-diethylcarbamoylmethoxyimino-acetic acid]
< 4.70: all assays above

CCON=C(C(=O)O)c1nc2ccccc2n([C@H]2C[C@H]3CC[C@@H](C2)N3C2CC3CCCCC(C3)C2)c1=O (stereo partly drawn) [Compound 36]
< 4.70: all assays above

CO/N=C(\C(=O)O)c1nc2ccccc2n([C@H]2C[C@H]3CC[C@@H](C2)N3C2CC3CCCCC(C3)C2)c1=O (stereo partly drawn) [Compound 20, (Z)-2-(4-((1R,3R)-8-(bicyclo[4.3.1]decan-8-yl)-8-azabicyclo[3.2.1]octan-3-yl)-3-oxo-3,4-dihydroquinoxalin-2-yl)-2-(methoxyimino)acetic acid]
< 4.70: all assays above

COCCO/N=C(\C(=O)O)c1nc2ccccc2n([C@H]2C[C@H]3CCC[C@@H](C2)N3C2CC3CCCC(C3)C2)c1=O (stereo partly drawn) [Compound 49]
< 4.70: all assays above

NC(=O)CO/N=C(\C(=O)O)c1nc2ccccc2n([C@H]2C[C@H]3CCC[C@@H](C2)N3C2CC3CCCCC(C3)C2)c1=O (stereo partly drawn) [Compound 45, (Z)-2-(2-amino-2-oxoethoxyimino)-2-(4-((1R,3R)-9-(bicyclo[4.3.1]decan-8-yl)-9-azabicyclo[3.3.1]nonan-3-yl)-3-oxo-3,4-dihydroquinoxalin-2-yl)acetic acid]
< 4.70: all assays above
